Results: PubChem BioAssay AID2060487 (Molecular Pharmacology Branch, DTP, NCI, 2025)
Where “and” joins values, the source holds several entries; their conditions need not be identical. Equal entries are not always repeated. Each block holds one compound with its values, some of them ahead of it.

Test system: 997537-175-T-J1-PDC complex spheroid viability
Assay: Anticancer human tumor 997537-175-T-J1-PDC patient-derived colon adenocarcinoma cell line growth inhibition [GQUAD]
Details: for viability, T/C: stronger effect = lower value
From the text: DNA G-quadruplex Stabilizer Agents in Combinations in Complex Spheroids
A high-throughput screen of multi-cell type tumor spheroids was designed to identify active combinations of DNA G-quadruplex stabilizer agents and targeted small molecules. Complex spheroids include a stromal component modeled by human endothelial cells (HUVEC) and fibroblasts modeled by human mesenchymal stem cells (MSCs). The concentration ranges selected for each drug and investigational agent were based upon clinically achievable concentrations if the clinical Cmax of the agent was known.
Compounds. The drugs and investigational agents: pidnarulex (CX-5461; NSC782164), APTO-253 (NSC789042), BRACO-19 (NSC847499), peposertib (NSC802822), ceralasertib (NSC780249), elimusertib (NSC800525), camonsertib (NSC841442), AZD-1390 (NSC803789), olaparib (NSC753686), talazoparib (NSC767125), ART-558 (NSC835418), sotorasib (NSC818433), MRTX-1133 (NSC836407), SN-38 (NSC673596), topotecan (NSC609699), etoposide (NSC141540), doxorubicin (NSC123127), gemcitabine (NSC613327), 5-fluorouracil (NSC19893), paclitaxel (NSC125973), vemurafenib (NSC761431), panobinostat (NSC761190), R-306465 (JNJ-16241199; NSC773264), adavosertib (NSC754352), TP-3654 (NSC805149), carboplatin (NSC241240), KSQ-4279 (NSC840948), and staurosporine (NSC755774) were obtained from the National Cancer Institute (NCI) Developmental Therapeutics Program Chemical Repository (34). The FDA-approved anticancer drug set is available from the NCI Developmental Therapeutics Program. […] The stock solutions were prepared in dimethyl sulfoxide (DMSO, Sigma-Aldrich, St. Louis, MO, cat. D2650) at 800-fold the tested concentration and stored at -70 degrees C prior to their use. All drugs and investigational agents were tested over a range starting from a high concentration at or near the clinical Cmax and decreasing in half-log increments. If the clinical Cmax for an agent had not been determined, the highest concentration tested was 10 microM.
2.3 Cell Culture. All cells were maintained in an incubator at 37 degrees C and 5% CO2 with 95% humidity. The PDC lines were cultured according to standard operating procedures established by the NCI PDMR. All PDCs were thawed and cultured in Matrigel-coated flasks prepared with a working solution of 1X Ham's F-12 nutrient mix, without supplementation (Invitrogen, cat. 11765054), 100 U/mL penicillin-streptomycin (Invitrogen, cat. 15140122), and 2.5% Matrigel (Corning Inc., cat. 354248) for the first three passages. The 857933-349-R-J2-PDC line was cultured in 6C/Colon 1B media, which includes advanced DMEM/F-12 (Thermo Fisher Scientific, cat. 12634028), 10 mM HEPES (Thermo Fisher Scientific, cat. 15630080), 1X GlutaMAX supplement (Thermo Fisher Scientific, cat. 35050061), 0.1 mg/mL primocin (InvivoGen, cat. ant-pm-2), 10% defined fetal bovine serum, heat inactivated (HyClone Laboratories Inc., cat. SH30070.03HI), 50% L-WRN conditioned media (ATCC, cat. CRL-3276), 1.25 mM N-Acetyl-L-cysteine (Sigma-Aldrich, cat. A9165), 10 mM nicotinamide (Sigma-Aldrich, cat. N0636), 1X B-27 supplement (Thermo Fisher Scientific, cat. 17504044), 1X N-2 supplement (Thermo Fisher Scientific, cat. 17502048), 10 microM Y-27632 dihydrochloride (Tocris Bioscience, cat. 1254), and 50 ng/mL human EGF recombinant protein (Thermo Fisher Scientific, cat. PHG0311). The 485176-168-R4-J1-PDC line was cultured in Panc media, which includes all 6C/Colon 1B media components plus 100 ng/mL human FGF-10 (Thermo Fisher Scientific, cat. 100-26), 500 nM SB-431542 (Selleckchem, cat. S1067), and gastrin (Tocris, cat. 3006).
[…]

[1] = curve of first compound, second compound 0.0316 µM
[2] = curve of first compound, second compound 0.1 µM
[3] = curve of first compound, second compound 0.316 µM
[4] = curve of first compound, second compound 1 µM
[5] = curve of first compound, second compound 3.16 µM
[6] = curve of first compound, second compound 10 µM
[7] = second compound 0.0316 µM, first compound 0.0316 µM
[8] = second compound 0.0316 µM, first compound 0.1 µM
[9] = second compound 0.0316 µM, first compound 0.316 µM
[10] = second compound 0.0316 µM, first compound 1 µM
[11] = second compound 0.0316 µM, first compound 3.16 µM
[12] = second compound 0.0316 µM, first compound 10 µM
[13] = second compound 0.1 µM, first compound 0.0316 µM
[14] = second compound 0.1 µM, first compound 0.1 µM
[15] = second compound 0.1 µM, first compound 0.316 µM
[16] = second compound 0.1 µM, first compound 1 µM
[17] = second compound 0.1 µM, first compound 3.16 µM
[18] = second compound 0.1 µM, first compound 10 µM
[19] = second compound 0.316 µM, first compound 0.0316 µM
[20] = second compound 0.316 µM, first compound 0.1 µM
[21] = second compound 0.316 µM, first compound 0.316 µM
[22] = second compound 0.316 µM, first compound 1 µM
[23] = second compound 0.316 µM, first compound 3.16 µM
[24] = second compound 0.316 µM, first compound 10 µM
[25] = second compound 1 µM, first compound 0.0316 µM
[26] = second compound 1 µM, first compound 0.1 µM
[27] = second compound 1 µM, first compound 0.316 µM
[28] = second compound 1 µM, first compound 1 µM
[29] = second compound 1 µM, first compound 3.16 µM
[30] = second compound 1 µM, first compound 10 µM
[31] = second compound 3.16 µM, first compound 0.0316 µM
[32] = second compound 3.16 µM, first compound 0.1 µM
[33] = second compound 3.16 µM, first compound 0.316 µM
[34] = second compound 3.16 µM, first compound 1 µM
[35] = second compound 3.16 µM, first compound 3.16 µM
[36] = second compound 3.16 µM, first compound 10 µM
[37] = second compound 10 µM, first compound 0.0316 µM
[38] = second compound 10 µM, first compound 0.1 µM
[39] = second compound 10 µM, first compound 0.316 µM
[40] = second compound 10 µM, first compound 1 µM
[41] = second compound 10 µM, first compound 3.16 µM
[42] = second compound 10 µM, first compound 10 µM
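Note: spheroids exposed to the agents for 7 days.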
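Throughout, for viability, T/C: 100% = DMSO vehicle control viability.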

IC50 (curve of compound): > 316 nM and 316 nM
Compound: Cc1[nH]c2ccccc2c1CCNCc1ccc(/C=C/C(=O)NO)cc1
viability, T/C (compound 0.000999 µM): 93.4% and 96.3% and 94.4% | viability, T/C (compound 0.00316 µM): 101% and 94.2% and 106% | viability, T/C (compound 0.00999 µM): 110% and 59.3% and 109% | viability, T/C (compound 0.0316 µM): 105% and 87.4% and 93.1% | viability, T/C (compound 0.0999 µM): 100% and 86.6% and 92.4% | viability, T/C (compound 0.316 µM): 87.6% and 50% and 52%

IC50 (curve of compound): > 10000 nM
Compound: Cc1cccc(N(C)C(=O)C2C(O)CCN2c2nc(C)cc(C(F)(F)F)c2C#N)c1 (stereo not given)
viability, T/C (compound 0.0316 µM): 107% and 89.4% and 99.3% | viability, T/C (compound 0.1 µM): 97.1% and 94.8% and 91.9% | viability, T/C (compound 0.316 µM): 97% and 109% and 98% | viability, T/C (compound 1 µM): 88.5% and 83.3% and 100% | viability, T/C (compound 3.16 µM): 60.2% and 82.8% and 85.9% | viability, T/C (compound 10 µM): 89.4% and 74.4% and 90.4%

Continued, compound first:

Compound: CC1COCCN1c1cc(C2(O)CC3CCC(C2)O3)c2cnn(-c3ccn[nH]3)c2n1 (stereo not given) + Cc1[nH]c2ccc(F)cc2c1-c1nc2c3cccnc3c3ncccc3c2[nH]1
IC50 [1]: 303 nM | IC50 [2]: 355 nM | IC50 [3]: 305 nM | IC50 [4]: 155 nM | IC50 [5]: < 31.6 nM | IC50 [6]: 74.6 nM | viability, T/C [7]: 74.3% | viability, T/C [8]: 56.8% | viability, T/C [9]: 62.4% | viability, T/C [10]: 22.3% | viability, T/C [11]: 40.2% | viability, T/C [12]: 56% | viability, T/C [13]: 75.3% | viability, T/C [14]: 59.5% | viability, T/C [15]: 57.9% | viability, T/C [16]: 32.7% | viability, T/C [17]: 45.4% | viability, T/C [18]: 52.7% | viability, T/C [19]: 78.7% | viability, T/C [20]: 61.9% | viability, T/C [21]: 45.5% | viability, T/C [22]: 38.6% | viability, T/C [23]: 54% | viability, T/C [24]: 60.4% | viability, T/C [25]: 54.7% | viability, T/C [26]: 57.6% | viability, T/C [27]: 44.9% | viability, T/C [28]: 40.8% | viability, T/C [29]: 38.7% | viability, T/C [30]: 61.4% | viability, T/C [31]: 55.1% | viability, T/C [32]: 34.3% | viability, T/C [33]: 44% | viability, T/C [34]: 29.2% | viability, T/C [35]: 44.5% | viability, T/C [36]: 60.4% | viability, T/C [37]: 61.2% | viability, T/C [38]: 44.8% | viability, T/C [39]: 42.5% | viability, T/C [40]: 43.6% | viability, T/C [41]: 31.9% | viability, T/C [42]: 41.3%

Compound: CC1COCCN1c1cc(C2(S(C)(=N)=O)CC2)nc(-c2ccnc3[nH]ccc23)n1 (stereo not given)
viability, T/C (compound 0.0316 µM): 98.9% and 93.7% and 101% | viability, T/C (compound 0.1 µM): 81.9% and 86.5% and 95.8% | viability, T/C (compound 0.316 µM): 83.6% and 94.9% and 77% | viability, T/C (compound 1 µM): 83.5% and 68.5% and 90.1% | viability, T/C (compound 3.16 µM): 56.5% and 65.7% and 59.5% | viability, T/C (compound 10 µM): 46.4% and 44.1% and 36.8% | IC50 (curve of compound): 7160 nM and 7090 nM and 5600 nM

Compound: CC(=O)O[C@H]1C(=O)[C@@]2(C)[C@H]([C@H](OC(=O)c3ccccc3)[C@]3(O)C[C@H](OC(=O)[C@H](O)[C@@H](NC(=O)c4ccccc4)c4ccccc4)C(C)=C1C3(C)C)[C@]1(OC(C)=O)CO[C@@H]1C[C@@H]2O + Cc1[nH]c2ccc(F)cc2c1-c1nc2c3cccnc3c3ncccc3c2[nH]1
IC50 [1]: 2800 nM | IC50 [2]: 4120 nM | IC50 [3]: 4510 nM | IC50 [4]: 3630 nM | IC50 [5]: 2190 nM | IC50 [6]: 1970 nM | viability, T/C [7]: 97.5% | viability, T/C [8]: 93.3% | viability, T/C [9]: 80.5% | viability, T/C [10]: 92.1% | viability, T/C [11]: 45.2% | viability, T/C [12]: 0.33% | viability, T/C [13]: 102% | viability, T/C [14]: 106% | viability, T/C [15]: 86.6% | viability, T/C [16]: 90.9% | viability, T/C [17]: 65.6% | viability, T/C [18]: 0.32% | viability, T/C [19]: 113% | viability, T/C [20]: 91% | viability, T/C [21]: 85.7% | viability, T/C [22]: 87.7% | viability, T/C [23]: 75.5% | viability, T/C [24]: 0.3% | viability, T/C [25]: 94.1% | viability, T/C [26]: 93.3% | viability, T/C [27]: 96.2% | viability, T/C [28]: 89.8% | viability, T/C [29]: 56.8% | viability, T/C [30]: 0.2% | viability, T/C [31]: 83.7% | viability, T/C [32]: 93.3% | viability, T/C [33]: 96.7% | viability, T/C [34]: 84.8% | viability, T/C [35]: 33.4% | viability, T/C [36]: 0.38% | viability, T/C [37]: 78.5% | viability, T/C [38]: 90.1% | viability, T/C [39]: 77.2% | viability, T/C [40]: 78% | viability, T/C [41]: 30.7% | viability, T/C [42]: 0.47%
